From article PMC9694494, “Resveratrol/Hydrazone Hybrids: Synthesis and Chemopreventive Activity against Colorectal Cancer Cells” (Pharmaceutics, 2022)
Where two headings read alike, the source gives them in different places.

Tests used:
CHO-K1 cells = experiment: SRB cell viability (cytotoxicity), CHO-K1; format: cell-based; details: Cricetulus griseus, CHO-K1 nonmalignant cells, read-out: IC50 ± SEM CHO
Description: (§1) Human colon cancer cell lines (SW480 and SW620), together with nonmalignant cells (CHO-K1 and HaCaT) were used to study the biological activity. Cells were purchased from the European Collection of Authenticated Cell Cultures (ECACC, UK). Dulbecco’s Modified Eagle Medium (DMEM) containing heat-inactivated (56 °C) horse serum (10%), non-essential amino acids (1%) and antibiotics (penicillin/streptomycin, 1%) (Gibco Invitrogen, Carlsbad, CA, USA) was used to maintain the cells, reducing the horse serum to 3%, and, adding insulin ([…]), transferrin ([…]) and selenium (5 ng/mL) (ITS-defined medium; Gibco, Invitrogen, Carlsbad, CA, USA) for all the experiments.
(§2) The colorimetric test with Sulforhodamine B (SRB) was used to evaluate cell viability. Cell density was adjusted to seed 20.000 cells/well in 96-well tissue culture plates. Cells were first incubated for 24 h and then treated with the synthesized hybrids, the lead compounds (PIH and resveratrol), and the reference drug (5-FU) (concentrations between 0.01 and 200 µM), using DMSO (below 1%) as vehicle control. The optimum conditions were 37 °C and 5% CO2. After the end of each treatment, cold trichloroacetic acid (MERCK, 50% v/v) was added and preserved for one hour at 4 °C, to fix the cells. Then, cell proteins were stained with 0.4% (w/v) SRB (Sigma-Aldrich, St. Louis, MO, USA), and subsequently washed with acetic acid (1%) to remove unbound SRB. After air-drying, protein-bound SRB was solubilized in 10 mM Tris-base before reading the absorbance at 492 nm in a microplate reader (Mindray MR-96A). All experiments were performed at least three times.

HaCaT cells = experiment: SRB cell viability (cytotoxicity), HaCaT; format: cell-based; details: Homo sapiens, HaCaT nonmalignant cells, read-out: IC50 ± SEM HACAT
Description: as §1, §2

SW480 cells [1] = experiment: SRB cell viability (cytotoxicity), SW480; format: cell-based, human; details: for Selectivity Index SI1: CHO-K1/SW480 IC50 ratio; for Selectivity Index SI2: HaCaT/SW480 IC50 ratio; for IC50: Homo sapiens, SW480, SRB, read-out: IC50 ± SEM SW480
Description: as §1, §2

SW620 cells [2] = experiment: SRB cell viability (cytotoxicity), SW620; format: cell-based, human; details: for Selectivity Index SI3: CHO-K1/SW620 IC50 ratio; for IC50: Homo sapiens, SW-620, SRB, read-out: IC50 ± SEM SW620
Description: as §1, §2

SW480 cells [3] = experiment: Antiproliferative activity (SRB, 2-8 days), SW480; format: cell-based; details: Homo sapiens, read-out: Viability (%) ± SE; for viability at 3 µM: SW480, 3 µM; for viability at 6 µM: SW480, 6 µM; for viability at 12 µM: SW480, 12 µM; for viability at 24 µM: SW480, 24 µM; for viability at 48 µM: SW480, 48 µM
Description: (§3) The procedure for evaluating the antiproliferative activity was carried out using the same colorimetric test (SRB) described for cell viability, with minor modifications. Briefly, 2500 cells/well were seeded in 96-well tissue culture plates and incubated as in the previously described conditions for 0, 2, 4, 6, and 8 days. […] The culture medium was changed every 48 h. After each incubation time, cells were fixed, stained, and read as previously described for this technique.

SW620 cells [4] = experiment: Antiproliferative activity (SRB, 2-8 days), SW620; format: cell-based; details: Homo sapiens, read-out: Viability (%) ± SE; for viability at 3 µM: SW620, 3 µM; for viability at 6 µM: SW620, 6 µM; for viability at 12 µM: SW620, 12 µM; for viability at 24 µM: SW620, 24 µM; for viability at 48 µM: SW620, 48 µM
Description: as §3

SW480 cells [5] = experiment: Mitochondrial membrane potential (DiOC6/PI flow cytometry), SW480; format: cell-based, human
Description: To evaluate changes in mitochondrial membrane permeability, the fluorescent dyes DiOC6 (3,3′-dihexyloxacarbocyanine iodide, Thermo Fisher Scientific, Waltham, MA, USA) and propidium iodide (PI) were used. Cell density was adjusted to seed 2.5 × 10^5 cells/well in 6-well tissue culture plates. […] Subsequently, cells were scraped with the same culture mean and stained with both fluorescent dyes, incubating at room temperature for 30 min in darkness. For each sample, 10,000 events were analyzed through flow cytometry with excitation at 488 nm and detection of the emission with the green (530/15 nm) and the red (610/20 nm) filters. The results informed about the cells with depolarized mitochondrial membranes.

[6] = SW-620, 48 h, 2 days after plating
[7] = SW-620, 96 h, 4 days after plating
[8] = SW-620, 144 h, 6 days after plating
[9] = SW-620, 192 h, 8 days after plating
[10] = SW480, treated at IC50 value, DiOC6/PI

For `O=C(N/N=C/c1c(O)cc(O)cc1/C=C/c1ccc(O)cc1)c1ccncc1` [compound 7, N′-((E)-2,4-dihydroxy-6-((E)-4-hydroxystyryl)benzylidene)isonicotinohydrazide], the IC50 (CHO-K1 cells; 24 H) was 67.2 ± 4.32 µM, the IC50 (CHO-K1 cells; 48 H) was 40.5 ± 2.4 µM and the IC50 (HaCaT cells; 24 H) was 79 ± 6.73 µM. For the same compound, the IC50 (HaCaT cells; 48 H) was 47.3 ± 2.5 µM, the “Selectivity Index SI1” value (SW480 cells [1]; 24 H) was 0.80 and the “Selectivity Index SI2” value (SW480 cells [1]; 24 H) was 0.94. The “Selectivity Index SI1” value (SW480 cells [1]; 48 H) was 2.14, the “Selectivity Index SI2” value (SW480 cells [1]; 48 H) was 2.49 and the IC50 (SW480 cells [1]; 24 H) was 84.2 ± 10 µM. For the same compound, the IC50 (SW480 cells [1]; 48 H) was 19 ± 1.4 µM, the “selectivity (SI)” value (SW480 cells [1]; SW480 versus the nonmalignant cell lines, 48 h after treatment) was over 1 and the “Selectivity Index SI3” value (SW620 cells [2]; 24 H) was 0.55. For the same compound, the “Selectivity Index SI4” value (SW620 cells [2]; 24 H, HaCaT/SW620 IC50 ratio) was 0.64, the “Selectivity Index SI3” value (SW620 cells [2]; 48 H) was 1.06 and the IC50 (SW620 cells [2]; 24 H) was 122 ± 10.8 µM. For the same compound, the IC50 (SW620 cells [2]; 48 H) was 38.4 ± 3.3 µM, the “selectivity (SI)” value (SW620 cells [2]; SW620 versus the nonmalignant cell lines, 48 h after treatment) was over 1 and the viability at 3 µM (SW480 cells [3]; 48 h, 2 days after plating) was 100%. For the same compound, the viability at 6 µM (SW480 cells [3]; 48 h, 2 days after plating) was 90.5 ± 1.38%, the viability at 12 µM (SW480 cells [3]; 48 h, 2 days after plating) was 59.1 ± 0.27% and the viability at 24 µM (SW480 cells [3]; 48 h, 2 days after plating) was 27.2 ± 0.5%. It also gave a viability at 48 µM (SW480 cells [3]; 48 h, 2 days after plating) of 19.6 ± 2.58%, a viability at 3 µM (SW480 cells [3]; 96 h, 4 days after plating) of 99.45 ± 0.55% and a viability at 6 µM (SW480 cells [3]; 96 h, 4 days after plating) of 78.5 ± 1.56%. For the same compound, the viability at 12 µM (SW480 cells [3]; 96 h, 4 days after plating) was 11.4 ± 0.35%, the viability at 24 µM (SW480 cells [3]; 96 h, 4 days after plating) was 0% and the viability at 48 µM (SW480 cells [3]; 96 h, 4 days after plating) was 0%. The viability at 3 µM (SW480 cells [3]; 144 h, 6 days after plating) was 96.87 ± 0.14%, the viability at 6 µM (SW480 cells [3]; 144 h, 6 days after plating) was 67.4 ± 1.82% and the viability at 12 µM (SW480 cells [3]; 144 h, 6 days after plating) was 5.49 ± 0.05%. For the same compound, the viability at 24 µM (SW480 cells [3]; 144 h, 6 days after plating) was 0%, the viability at 48 µM (SW480 cells [3]; 144 h, 6 days after plating) was 0% and the viability at 3 µM (SW480 cells [3]; 192 h, 8 days after plating) was 74.76 ± 0.02%. The viability at 6 µM (SW480 cells [3]; 192 h, 8 days after plating) was 48.5 ± 1.11%, the viability at 12 µM (SW480 cells [3]; 192 h, 8 days after plating) was 2.52 ± 0.22% and the viability at 24 µM (SW480 cells [3]; 192 h, 8 days after plating) was 0%. It also gave a viability at 48 µM (SW480 cells [3]; 192 h, 8 days after plating) of 0%, a viability at 3 µM (SW620 cells [4]; [6]) of 89.3 ± 1.65% and a viability at 6 µM (SW620 cells [4]; [6]) of 88 ± 2.48%. It also gave a viability at 12 µM (SW620 cells [4]; [6]) of 67.82 ± 0.4%, a viability at 24 µM (SW620 cells [4]; [6]) of 45.21 ± 0.38% and a viability at 48 µM (SW620 cells [4]; [6]) of 41.5 ± 3.3%. The viability at 3 µM (SW620 cells [4]; [7]) was 87.29 ± 0.75%, the viability at 6 µM (SW620 cells [4]; [7]) was 72.4 ± 0.9% and the viability at 12 µM (SW620 cells [4]; [7]) was 33 ± 1.8%. For the same compound, the viability at 24 µM (SW620 cells [4]; [7]) was 27.8 ± 2.96%, the viability at 48 µM (SW620 cells [4]; [7]) was 6.31 ± 0.74% and the viability at 3 µM (SW620 cells [4]; [8]) was 59.2 ± 2.77%. For the same compound, the viability at 6 µM (SW620 cells [4]; [8]) was 43.4 ± 0.48%, the viability at 12 µM (SW620 cells [4]; [8]) was 17.8 ± 0.3% and the viability at 24 µM (SW620 cells [4]; [8]) was 8.13 ± 1.48%. For the same compound, the viability at 48 µM (SW620 cells [4]; [8]) was 0.26 ± 0.07%, the viability at 3 µM (SW620 cells [4]; [9]) was 46.55 ± 0.03% and the viability at 6 µM (SW620 cells [4]; [9]) was 38.53 ± 0.28%. The viability at 12 µM (SW620 cells [4]; [9]) was 5.53 ± 0.11%, the viability at 24 µM (SW620 cells [4]; [9]) was 3.93 ± 0.59% and the viability at 48 µM (SW620 cells [4]; [9]) was 0%. For the same compound, the “effect on mitochondrial membrane potential (ΔΨm)” value (SW480 cells [5]; SW480, regarding the control, increase in DiOC6 low population) was “causing depolarization in the mitochondrial membrane”, the “Q1: PI-positive cells with membrane damage” value (SW480 cells [5]; [10]) was 1.24% and the “Q2: PI-positive cells with membrane damage” value (SW480 cells [5]; [10]) was 0.052%. The “Q3: DiOC6 high, live cells with high membrane polarization” value (SW480 cells [5]; [10]) was 67.3% and the “Q4: DiOC6 low, cells in latency that lose membrane polarization” value (SW480 cells [5]; [10]) was 31.4%.
